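48-hour exposure; five concentrations; linearly interpolated endpoints. GI50: concentration for 50% inhibition of growth.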 Active and inactive are the calls of the source. Rule as the data show it: active = GI50 up to about 1.1 µM and inactive = higher.
How the values were obtained:
Test in all cases: NCI anticancer screen, dose series, 48 h
A498 = test system: A498
A549 = test system: A549
SK-MEL-5 = test system: SK-MEL-5
SK-OV-3 = test system: SK-OV-3
HL-60 = test system: HL-60
OVCAR-4 = test system: OVCAR-4
SF-268 = test system: SF-268
ACHN = test system: ACHN
HCT-15 = test system: HCT-15
SK-MEL-28 = test system: SK-MEL-28
COLO 205 = test system: COLO 205
UACC-62 = test system: UACC-62
M14 = test system: M14
MDA-N = test system: MDA-N
NCI-H23 = test system: NCI-H23
HCT-116 = test system: HCT-116
SR = test system: SR
MDA-MB-231 = test system: MDA-MB-231
SK-MEL-2 = test system: SK-MEL-2

## CCOc1cc2c(cc1O)/C(=N\O)C[C@@H]1[C@@H]2CC[C@]2(C)[C@@H](O)CC[C@@H]12
A498
  GI50: < 0.0272 µM (active)
A549
  GI50: 0.0521 µM (active)
SK-MEL-5
  GI50: 0.01 µM (active)
SK-OV-3
  GI50: 0.0374 µM (active)
HL-60
  GI50: < 0.0155 µM (active)
OVCAR-4
  GI50: 6.34 µM (inactive)
SF-268
  GI50: < 0.031 µM (active)
ACHN
  GI50: 0.126 µM (active)
HCT-15
  GI50: < 0.0199 µM
SK-MEL-28
  GI50: < 0.0276 µM (active)
COLO 205
  GI50: 8.79 µM (inactive)
UACC-62
  GI50: < 0.0191 µM (active)
M14
  GI50: 0.0144 µM (active)
MDA-N
  GI50: 0.0123 µM (active)
NCI-H23
  GI50: 0.0455 µM (active)
HCT-116
  GI50: < 0.0211 µM (active)

## Cc1n[nH]c(=O)n1Nc1ccccc1
A549
  GI50: > 100 µM (inactive)
SK-MEL-5
  GI50: > 100 µM (inactive)
SK-OV-3
  GI50: > 100 µM (inactive)
HL-60
  GI50: > 100 µM (inactive)
OVCAR-4
  GI50: > 100 µM (inactive)
SF-268
  GI50: > 100 µM (inactive)
ACHN
  GI50: > 100 µM (inactive)
HCT-15
  GI50: > 100 µM
SK-MEL-28
  GI50: > 100 µM (inactive)
COLO 205
  GI50: > 100 µM (inactive)
SR
  GI50: > 100 µM (inactive)
UACC-62
  GI50: > 100 µM (inactive)
M14
  GI50: > 100 µM (inactive)
MDA-N
  GI50: > 100 µM (inactive)
NCI-H23
  GI50: > 100 µM (inactive)
HCT-116
  GI50: > 100 µM (inactive)
MDA-MB-231
  GI50: > 100 µM (inactive)

## O=C1/C(=C/c2ccc(O)c(CN3CCCCC3)c2)CCC/C1=C\c1ccc(O)c(CN2CCCCC2)c1
A498
  GI50: 12.8 µM (inactive)
A549
  GI50: 16.7 µM (inactive)
SK-MEL-5
  GI50: 14 µM (inactive)
SK-OV-3
  GI50: 8.53 µM (inactive)
HL-60
  GI50: 3.48 µM (inactive)
OVCAR-4
  GI50: 6.81 µM (inactive)
SF-268
  GI50: 3.52 µM (inactive)
ACHN
  GI50: 6.31 µM (inactive)
HCT-15
  GI50: 5.37 µM
SK-MEL-28
  GI50: 13.3 µM (inactive)
COLO 205
  GI50: 2.55 µM (inactive)
SK-MEL-2
  GI50: 22.1 µM (inactive)
UACC-62
  GI50: 16 µM (inactive)
M14
  GI50: 16.1 µM (inactive)
MDA-N
  GI50: 4.66 µM (inactive)
NCI-H23
  GI50: 5.52 µM (inactive)
HCT-116
  GI50: 2.4 µM (inactive)
MDA-MB-231
  GI50: 5.69 µM (inactive)

## O=C(O)C(Cc1ccccc1)NCc1c(O)ccc2c(-c3ccccc3)cc(=O)oc12 (configuration not stated)
A549
  GI50: > 100 µM (inactive)
SK-MEL-5
  GI50: > 100 µM (inactive)
SK-OV-3
  GI50: > 100 µM (inactive)
HL-60
  GI50: > 100 µM (inactive)
OVCAR-4
  GI50: > 100 µM (inactive)
SF-268
  GI50: > 100 µM (inactive)
ACHN
  GI50: > 100 µM (inactive)
HCT-15
  GI50: > 100 µM
SK-MEL-28
  GI50: > 100 µM (inactive)
COLO 205
  GI50: > 100 µM (inactive)
SK-MEL-2
  GI50: > 100 µM (inactive)
SR
  GI50: > 100 µM (inactive)
UACC-62
  GI50: > 100 µM (inactive)
M14
  GI50: > 100 µM (inactive)
MDA-N
  GI50: > 100 µM (inactive)
NCI-H23
  GI50: > 100 µM (inactive)
HCT-116
  GI50: > 100 µM (inactive)
MDA-MB-231
  GI50: > 100 µM (inactive)

## Cc1ccc(O)c(-c2cscn2)c1
A498
  GI50: 15.3 µM (inactive)
A549
  GI50: 29.7 µM (inactive)
SK-MEL-5
  GI50: 23.7 µM (inactive)
SK-OV-3
  GI50: 32.6 µM (inactive)
HL-60
  GI50: 1.81 µM (inactive)
OVCAR-4
  GI50: 54 µM (inactive)
ACHN
  GI50: 32 µM (inactive)
HCT-15
  GI50: 31.6 µM
COLO 205
  GI50: 12.5 µM (inactive)
SK-MEL-2
  GI50: 64 µM (inactive)
SR
  GI50: 40.4 µM (inactive)
UACC-62
  GI50: 55 µM (inactive)
M14
  GI50: 54.2 µM (inactive)
MDA-N
  GI50: 40.2 µM (inactive)
NCI-H23
  GI50: 39.4 µM (inactive)
HCT-116
  GI50: 30.4 µM (inactive)

## CC12CC3OC(=O)C1COC14OC5(C2C1=O)C(O)(CCC1C4CC(O)C2(O)CC=CC(=O)C12C)C(=O)OC35C (configuration not stated)
A549
  GI50: > 100 µM (inactive)
SK-MEL-5
  GI50: > 100 µM (inactive)
SK-OV-3
  GI50: > 100 µM (inactive)
HL-60
  GI50: > 100 µM (inactive)
OVCAR-4
  GI50: > 100 µM (inactive)
SF-268
  GI50: > 100 µM (inactive)
ACHN
  GI50: > 100 µM (inactive)
HCT-15
  GI50: > 100 µM
SK-MEL-28
  GI50: > 100 µM (inactive)
COLO 205
  GI50: > 100 µM (inactive)
SK-MEL-2
  GI50: > 100 µM (inactive)
UACC-62
  GI50: > 100 µM (inactive)
M14
  GI50: > 100 µM (inactive)
MDA-N
  GI50: 83.4 µM (inactive)
NCI-H23
  GI50: > 100 µM (inactive)
HCT-116
  GI50: > 100 µM (inactive)
MDA-MB-231
  GI50: > 100 µM (inactive)

## O=P1(O)c2ccccc2CCc2ccccc21
A549
  GI50: > 100 µM (inactive)
SK-MEL-5
  GI50: > 100 µM (inactive)
SK-OV-3
  GI50: > 100 µM (inactive)
SF-268
  GI50: > 100 µM (inactive)
HCT-15
  GI50: > 100 µM
SK-MEL-28
  GI50: > 100 µM (inactive)
COLO 205
  GI50: > 100 µM (inactive)
SK-MEL-2
  GI50: > 100 µM (inactive)
UACC-62
  GI50: > 100 µM (inactive)
M14
  GI50: > 100 µM (inactive)
MDA-N
  GI50: > 100 µM (inactive)
NCI-H23
  GI50: > 100 µM (inactive)
HCT-116
  GI50: > 100 µM (inactive)
MDA-MB-231
  GI50: > 100 µM (inactive)

## CN/C(=N\N)NS(=O)(=O)c1cc(C)c(Cl)cc1S
A549
  GI50: 29.9 µM (inactive)
SK-MEL-5
  GI50: 30.7 µM (inactive)
SK-OV-3
  GI50: > 100 µM (inactive)
HL-60
  GI50: 41.5 µM (inactive)
OVCAR-4
  GI50: > 100 µM (inactive)
SF-268
  GI50: > 100 µM (inactive)
HCT-15
  GI50: 48.2 µM
SK-MEL-28
  GI50: > 100 µM (inactive)
COLO 205
  GI50: > 100 µM (inactive)
SK-MEL-2
  GI50: 69.2 µM (inactive)
SR
  GI50: 44 µM (inactive)
UACC-62
  GI50: 53.7 µM (inactive)
M14
  GI50: 54.5 µM (inactive)
MDA-N
  GI50: > 100 µM (inactive)
HCT-116
  GI50: 66.5 µM (inactive)
MDA-MB-231
  GI50: > 100 µM (inactive)

Reference: ChEMBL document CHEMBL1201862, “PubChem BioAssay data set” (2004)
